# Test results as given in ChEMBL document CHEMBL5325458, “Growth factors and their peptide mimetics for treatment of traumatic brain injury” (2023).
# Where a SMILES comes first, the peptide text is derived from it.
# Tests used:
# [1] = tested on: Rattus norvegicus; test: Neuroprotective activity against medial cerebral artery occlusion induced cerebral ischemia rat model assessed decrease in infarct volume at 0.1 mg/kg, ip qd administered 4 hrs post reperfusion and measured after 6 days by TTC staining based assay; format: functional; design: scale not given: the % may be the effect or the level left; details: time 144 hrs
# [2] = tested on: Rattus norvegicus; test: Neuroprotective activity against medial cerebral artery occlusion induced cerebral ischemia rat model assessed decrease in infarct volume at 1 mg/kg, ip qd administered 4 hrs post reperfusion and measured after 6 days by TTC staining based assay; format: functional; design: scale not given: the % may be the effect or the level left; details: time 144 hrs
# [3] = Induction of TrkA phosphorylation in rat PC12 cells at 3 uM measured after 10 to 30 mins by Western blotting analysis relative to control; format: functional, PC-12; details: time 10-30 min
# [4] = Neuroprotective activity against chick primary sensory neuron assessed as inhibition of BDNF-mediated neuronal survival; format: functional, Gallus gallus
# [5] = target: BDNF/NT-3 growth factors receptor (Homo sapiens) (UniProt Q16620); test: Agonist activity at human TrkB receptor in HEK293 cells assessed as increase in TrkB phosphorylation at 0.001 to 1 uM relative to control; format: cell-based; details: filed as agonist, dose 0.001-1 µM
# [6] = target: BDNF/NT-3 growth factors receptor (Homo sapiens) (UniProt Q16620); test: Agonist activity at human TrkB receptor in HEK293 cells assessed as increase in ERK phosphorylation at 0.001 to 1 uM relative to control; format: cell-based; details: filed as agonist, dose 0.001-1 µM
# [7] = target: Hepatocyte growth factor (Homo sapiens) (UniProt P14210); test: Activation of HGF in human A549 cells assessed as increase in Met phosphorylation; format: cell-based
# Hepatocyte growth factor (Homo sapiens), sequence (P14210 32-494 limits assumed): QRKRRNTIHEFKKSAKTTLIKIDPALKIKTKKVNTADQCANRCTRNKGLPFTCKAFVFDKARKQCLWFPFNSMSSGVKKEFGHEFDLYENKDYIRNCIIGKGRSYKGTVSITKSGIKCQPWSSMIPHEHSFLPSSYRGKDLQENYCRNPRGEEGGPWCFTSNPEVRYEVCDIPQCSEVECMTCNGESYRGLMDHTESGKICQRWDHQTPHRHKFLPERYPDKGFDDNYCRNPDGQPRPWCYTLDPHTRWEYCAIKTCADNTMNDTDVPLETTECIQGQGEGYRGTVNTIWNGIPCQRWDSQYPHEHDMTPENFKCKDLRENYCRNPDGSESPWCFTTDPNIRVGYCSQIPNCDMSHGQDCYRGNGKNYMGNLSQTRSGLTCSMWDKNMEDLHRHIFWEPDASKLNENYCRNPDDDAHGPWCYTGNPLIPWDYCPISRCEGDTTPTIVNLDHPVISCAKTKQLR
# Hepatocyte growth factor (Homo sapiens), sequence (P14210 495-728 limits assumed): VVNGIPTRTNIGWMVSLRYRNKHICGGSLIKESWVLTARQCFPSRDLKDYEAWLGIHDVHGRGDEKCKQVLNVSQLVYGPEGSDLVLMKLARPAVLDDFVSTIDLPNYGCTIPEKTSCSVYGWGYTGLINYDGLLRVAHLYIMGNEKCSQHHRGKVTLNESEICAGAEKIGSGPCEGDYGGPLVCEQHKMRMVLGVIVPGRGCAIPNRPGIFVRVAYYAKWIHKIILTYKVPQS
# BDNF/NT-3 growth factors receptor (Homo sapiens), sequence (Q16620 32-822 limits assumed): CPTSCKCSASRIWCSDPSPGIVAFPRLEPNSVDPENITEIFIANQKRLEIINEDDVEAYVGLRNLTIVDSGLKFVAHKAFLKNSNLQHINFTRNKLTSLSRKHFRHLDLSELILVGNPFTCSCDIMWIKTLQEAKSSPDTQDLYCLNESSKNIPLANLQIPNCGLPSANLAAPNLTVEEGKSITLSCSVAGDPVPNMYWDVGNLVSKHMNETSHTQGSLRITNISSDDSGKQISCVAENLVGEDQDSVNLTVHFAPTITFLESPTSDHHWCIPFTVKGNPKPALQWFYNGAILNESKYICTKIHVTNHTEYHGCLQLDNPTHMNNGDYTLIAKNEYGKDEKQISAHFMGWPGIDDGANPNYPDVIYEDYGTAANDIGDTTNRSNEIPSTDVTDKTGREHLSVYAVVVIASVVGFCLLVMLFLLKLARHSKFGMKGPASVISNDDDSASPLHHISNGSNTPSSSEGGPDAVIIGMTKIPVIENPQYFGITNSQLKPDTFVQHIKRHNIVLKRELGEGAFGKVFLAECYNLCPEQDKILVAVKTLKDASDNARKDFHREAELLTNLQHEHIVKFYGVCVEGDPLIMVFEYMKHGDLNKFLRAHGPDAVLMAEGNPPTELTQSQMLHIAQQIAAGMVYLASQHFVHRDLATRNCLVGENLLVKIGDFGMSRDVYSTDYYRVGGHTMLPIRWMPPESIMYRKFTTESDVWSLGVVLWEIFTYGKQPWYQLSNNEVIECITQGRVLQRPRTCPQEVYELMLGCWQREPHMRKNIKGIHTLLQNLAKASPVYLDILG
compound,measurement,setting,value
NCCCC[C@H](NCCCCCCNC(=O)[C@H](CCCCN)NC(=O)[C@H](CO)NC(=O)CCC(=O)O)C(=O)N[C@@H](CO)C(=O)CCC(=O)O,Activity,[1],~66%
NCCCC[C@H](NC(=O)[C@H](Cc1c[nH]cn1)NCCCCCCNC(=O)[C@H](Cc1c[nH]cn1)NC(=O)[C@H](CCCCN)NC(=O)CCCO)C(=O)CCCO,Activity,[2],25%
CC[C@H](C)[C@@H]1NC(=O)[C@H](CC(=O)O)NC(=O)[C@H]([C@@H](C)O)NC(=O)[C@H](N)CSSC[C@H](C(=O)N[C@H](C(=O)NCC(=O)N[C@@H](C)C(=O)N[C@H]2CSSC[C@@H](C(=O)O)NC(=O)[C@H](CCC(N)=O)NC(=O)[C@H](CCCCN)NC(=O)CNC(=O)[C@H](CC(=O)O)NC2=O)[C@@H](C)O)NC(=O)[C@H](CCCCN)NC(=O)CNC(=O)[C@H](CCCCN)NC1=O,Activity,[3],~75%
"CC(C)C[C@@H]1NC(=O)[C@H](CCC(N)=O)NC(=O)CNC(=O)[C@H](CCCCN)NC(=O)[C@H](CO)NC(=O)[C@H](C(C)C)NC(=O)[C@@H]2CCCN2C(=O)[C@H](C(C)C)NC(=O)[C@@H](N)CSSC[C@@H](C(=O)O)NC1=O (HELM PEPTIDE1{C.V.P.V.S.K.G.Q.L.C}$PEPTIDE1,PEPTIDE1,1:R3-10:R3$$$V2.0)",inhibition (INH),[4],50%
"CSCC[C@H](NC(=O)[C@H](CCCNC(=N)N)NC(=O)[C@@H]1CCCN1C(=O)[C@H](CC(C)C)NC(=O)[C@H](CO)NC(=O)[C@H](CC(N)=O)NC(=O)CC(N)CC(=O)[C@H](CC(N)=O)NC(=O)[C@H](CO)NC(=O)[C@H](CC(C)C)NC(=O)[C@@H]1CCCN1C(=O)[C@H](CCCNC(=N)N)NC(=O)[C@H](CCSC)NC(=O)[C@@H]1CSSC[C@H](C(N)=O)C(=O)N[C@@H](CC(C)C)C(=O)N[C@@H](CCCNC(=N)N)C(=O)N[C@@H](Cc2c[nH]c3ccccc23)C(=O)N[C@@H](CCCNC(=N)N)C(=O)N[C@@H](CCCNC(=N)N)C(=O)N[C@@H](C(C)C)C(=O)N[C@@H](CCCNC(=N)N)C(=O)N1)C(=O)N[C@H]1CSSC[C@@H](C(=O)N[C@@H](Cc2ccccc2)C(=O)O)NC(=O)[C@H](CC(C)C)NC(=O)[C@H](CCCNC(=N)N)NC(=O)[C@H](Cc2c[nH]c3ccccc23)NC(=O)[C@H](CCCNC(=N)N)NC(=O)[C@H](CCCNC(=N)N)NC(=O)[C@H](C(C)C)NC(=O)[C@H](CCCNC(=N)N)NC1=O (some centres not stated) (HELM PEPTIDE1{L.R.W.R.R.V.R.C.M.R.P.L.S.[NC(=O)C[C@H](N[*:1])C(=O)CC(N)CC(=O)[*:2]].N.S.L.P.R.M.C.R.V.R.R.W.R.L.C.F}|CHEM1{[NC(=O)[C@@H](CS[*:2])C(=O)[*:1]]}$PEPTIDE1,PEPTIDE1,21:R3-29:R3|PEPTIDE1,CHEM1,1:R1-1:R1|PEPTIDE1,CHEM1,8:R3-1:R2$$$V2.0)",Activity,[5],50%
same,Activity,[6],50%
H-VVNGIPTR-OH,Activity,[7],25%
